Data reported in US20250387399A1, “TREATMENT OF A SELECTIVE POPULATION OF PATIENTS HAVING DEMENTIA WITH LEWY BODIES” (EIP Pharma, LLC, priority 2021, published 2025).

Tests used:
Format in all cases: in vivo, human
[1] = system: patients with mild-to-moderate DLB; assay: AscenD-LB phase 2 study: DLB specific Neuropsychological Test Battery (NTB) z-score
Description: (§1) With the objective of uniformly achieving a target average plasma drug concentration of 20 nM patients, dosing regimen after randomization to neflamapimod or placebo was based on weight: • Weight<80 kg: 40 mg neflamapimod capsule or matching placebo capsule BID • Weight≥80 kg: 40 mg neflamapimod capsule or matching placebo capsule TID
(§2) As a result, efficacy analyses compared: (1) all neflamapimod (i.e., including 40 mg BID and 40 mg TID) vs. placebo; (2) 40 mg TID (dose group that achieved target concentration) vs. placebo; and (3) 40 mg TID vs. placebo TID.
(§3) Plasma ptau181 levels were determined by SIMOA pTau181 Assay (Quanterix) at the VU Medical Center, where the in-house defined cut-off for tau pathology was set at 2.2 pg/mL.

[2] = system: patients with mild-to-moderate DLB; assay: AscenD-LB phase 2 study: Attention Composite z-score
Description: as §1, §2, §3

[3] = system: patients with mild-to-moderate DLB; assay: AscenD-LB phase 2 study: Timed Up and Go (TUG) test
Description: as §1, §2, §3

[4] = system: patients with mild-to-moderate DLB; assay: AscenD-LB phase 2 study: Clinical Dementia Rating Scale sum-of-boxes (CDR-SB)
Description: as §1, §2, §3

[5] = system: patients with mild-to-moderate DLB; assay: AscenD-LB phase 2 study: International Shopping List Test (ISLT); conditions: patients with baseline plasma ptau181 <2.2 pg/mL, 16 weeks
Description: as §1, §2, §3

[6] = AscenD-LB phase 2 study: plasma drug concentration
Description: as §1
Trough plasma drug concentrations 50% lower with 40 mg BID vs. 40 mg TID

[7] = system: patients with mild-to-moderate DLB; assay: AscenD-LB phase 2 study: treatment effect by baseline plasma ptau181 status (all major endpoints)
Description: Up to half of patients with DLB have tau pathology, or “AD copathology” (van der Lee et al, 2021) and such co-pathology may impact response to cholinesterase inhibitors (Graff-Radford et al, 2012). In patients with DLB, plasma phospho-tau (either ptau217 or ptau181) correlates with tau-PET signal in the temporal cortex and predicts abnormal tau-PET status and CSF β-amyloid status (Hall et al, 2021). Accordingly, plasma ptau181 levels were assessed in plasma samples obtained during the screening phase of AscenD-LB. The results on the association of tau pathology to treatment outcome in AscenD-LB are described below.
as §3

[8] = 40 mg TID vs. placebo TID, baseline plasma ptau181 < 2.2 pg/mL
[9] = 40 mg TID vs. placebo, baseline plasma ptau181 < 2.2 pg/mL
[10] = all neflamapimod (40 mg BID and TID) vs. placebo, baseline plasma ptau181 < 2.2 pg/mL
[11] = overall population, 91-patient, 16-week study, main analysis
[12] = 40 mg TID vs. all placebo, patients with baseline plasma ptau181 <2.2 pg/mL, 16 weeks
[13] = 40 mg TID vs. placebo TID, patients with baseline plasma ptau181 <2.2 pg/mL, 16 weeks

## O=c1ncn2nc(Sc3ccc(F)cc3F)ccc2c1-c1c(Cl)cccc1Cl [neflamapimod, 5-(2,6-dichlorophenyl)-2-(2,4-difluorophenylthio)-6H-pyrimido [1,6-b]pyridazin-6-one]
[1]; 40 mg TID vs. all placebo, patients with baseline plasma ptau181 <2.2 pg/mL, 16 weeks, not significant
  NTB z-score, difference vs. placebo (LMMRM): 0.21
[1]; [8]
  NTB, Effect size, improvement in neflamapimod 40 mg TID vs. placebo TID: 0.61
[1]; 40 mg TID vs. placebo TID, patients with baseline plasma ptau181 <2.2 pg/mL, 16 weeks, not significant
  NTB z-score, difference vs. placebo TID (LMMRM): 0.25
[1]; [9]
  NTB, Effect size, improvement in neflamapimod 40 mg TID vs. placebo: 0.56
[1]; [10]
  NTB, Effect size, improvement in all neflamapimod vs. placebo: 0.15
[1]; [11]
  cognition assessed by NTB, relative to placebo: significant improvement
[2]; [12]
  attention composite z-score, difference vs. placebo (LMMRM): 0.42 z-score
[2]; [8]
  Attention, Effect size, improvement in neflamapimod 40 mg TID vs. placebo TID: 0.70
[2]; [13]
  attention composite z-score, difference vs. placebo TID (LMMRM): 0.46 z-score
[2]; [9]
  Attention, Effect size, improvement in neflamapimod 40 mg TID vs. placebo: 0.78
[2]; [10]
  Attention, Effect size, improvement in all neflamapimod vs. placebo: 0.29
[3]; [12]
  TUG, difference vs. placebo (LMMRM): -3.1 s
[3]; [8]
  Timed up and Go, Effect size, improvement in neflamapimod 40 mg TID vs. placebo TID: 0.70
[3]; [13]
  TUG, difference vs. placebo TID (LMMRM): -3.5 s
[3]; [9]
  Timed up and Go, Effect size, improvement in neflamapimod 40 mg TID vs. placebo: 0.74
[3]; [10]
  Timed up and Go, Effect size, improvement in all neflamapimod vs. placebo: 0.40
[3]; [11]
  motor function assessed by TUG test, relative to placebo: significant improvement
[4]; [12]
  CDR-SB, difference vs. placebo (LMMRM): −0.60 points
[4]; [8]
  CDR-SB, Effect size, improvement in neflamapimod 40 mg TID vs. placebo TID: 0.98
[4]; [13]
  CDR-SB, difference vs. placebo TID (LMMRM): −0.93 points
[4]; [9]
  CDR-SB, Effect size, improvement in neflamapimod 40 mg TID vs. placebo: 0.70
[4]; [10]
  CDR-SB, Effect size, improvement in all neflamapimod vs. placebo: 0.58
[4]; [11]
  cognition and function assessed by CDR-SB, relative to placebo: significant improvement
[5]; 40 mg TID vs. all placebo
  ISLD immediate recall, difference vs. placebo (LMMRM): 2.1 words
  ISLD recognition, difference vs. placebo (LMMRM): 1.4 words
[5]; 40 mg TID vs. placebo TID
  ISLD immediate recall, difference vs. placebo TID (LMMRM): 2.3 words
  ISLD recognition, difference vs. placebo TID (LMMRM): 0.9 words
[6]; 40 mg BID (weight <80 kg)
  shortfall from target average plasma drug concentration (20 nM): 30-40%
[6]; 40 mg BID vs. 40 mg TID
  trough plasma drug concentrations, lower with 40 mg BID vs. 40 mg TID: 50%
[6]; 40 mg TID (weight ≥80 kg)
  attainment of target average plasma drug concentration (20 nM): achieved target plasma drug concentration
[7]; patients below the threshold (2.2 pg/mL) for having tau pathology
  treatment effect on NTB z-score, attention z-score, TUG, CDR-SB (descriptive evaluation): positive treatment effects
[7]; patients with baseline plasma ptau181 above the threshold (2.2 pg/mL), i.e. with tau pathology
  treatment effect on NTB z-score, attention z-score, TUG, CDR-SB (descriptive evaluation): no discernible treatment effect
[7]; plasma ptau181 <2.2 pg/mL at baseline vs. overall population
  magnitude of treatment effect relative to placebo for the individual endpoints, ptau181 <2.2 pg/mL population compared to overall population: 1.5 to 2.0 fold
